Experimental findings from publication PMC9643865, “Bromo-protopine, a novel protopine derivative, alleviates tau pathology by activating chaperone-mediated autophagy for Alzheimer’s disease therapy” (Frontiers in Molecular Biosciences, 2022) are described below.

One assay addresses T1, HDAC6 (Homo sapiens, UniProt Q9UBN7).
T1 construct: purchased Enzo Life Sciences BML-AK516
T1 sequence (Q9UBN7 1-1215): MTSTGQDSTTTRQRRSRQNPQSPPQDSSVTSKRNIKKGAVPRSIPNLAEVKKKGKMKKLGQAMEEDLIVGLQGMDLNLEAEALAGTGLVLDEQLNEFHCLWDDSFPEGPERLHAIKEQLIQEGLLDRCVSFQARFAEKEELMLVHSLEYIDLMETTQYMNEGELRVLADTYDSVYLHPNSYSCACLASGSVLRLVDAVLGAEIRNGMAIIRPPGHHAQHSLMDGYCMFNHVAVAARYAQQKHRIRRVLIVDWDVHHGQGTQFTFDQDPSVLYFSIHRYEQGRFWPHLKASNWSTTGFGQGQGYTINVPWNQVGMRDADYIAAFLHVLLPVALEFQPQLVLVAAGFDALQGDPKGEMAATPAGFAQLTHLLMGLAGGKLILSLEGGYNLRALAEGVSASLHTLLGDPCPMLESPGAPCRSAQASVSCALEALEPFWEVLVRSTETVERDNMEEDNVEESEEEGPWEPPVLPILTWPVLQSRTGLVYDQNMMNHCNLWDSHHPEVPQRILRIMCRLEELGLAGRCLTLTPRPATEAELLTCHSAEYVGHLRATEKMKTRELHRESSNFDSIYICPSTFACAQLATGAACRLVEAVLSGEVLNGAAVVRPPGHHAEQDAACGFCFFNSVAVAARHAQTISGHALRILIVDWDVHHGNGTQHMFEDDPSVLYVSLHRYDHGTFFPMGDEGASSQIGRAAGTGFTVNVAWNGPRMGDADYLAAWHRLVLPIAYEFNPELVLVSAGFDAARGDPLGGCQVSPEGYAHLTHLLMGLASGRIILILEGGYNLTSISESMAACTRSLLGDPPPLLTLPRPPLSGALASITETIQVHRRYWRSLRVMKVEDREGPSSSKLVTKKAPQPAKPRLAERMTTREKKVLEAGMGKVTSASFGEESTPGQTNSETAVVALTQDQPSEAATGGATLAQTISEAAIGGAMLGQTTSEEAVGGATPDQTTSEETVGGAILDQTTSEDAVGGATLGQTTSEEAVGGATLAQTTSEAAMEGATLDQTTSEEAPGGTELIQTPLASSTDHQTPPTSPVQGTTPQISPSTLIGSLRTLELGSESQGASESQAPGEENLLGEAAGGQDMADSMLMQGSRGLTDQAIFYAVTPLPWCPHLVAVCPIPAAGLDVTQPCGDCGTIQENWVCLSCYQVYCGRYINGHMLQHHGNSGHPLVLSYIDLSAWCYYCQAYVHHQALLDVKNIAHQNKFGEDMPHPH
The assay is described as follows: HDAC6 deacetylase fluorometric assay with pure HDAC6 protein. It is filed as biochemical. To be noted: read-out: 50% inhibitory concentration (IC50) on HDAC6 activity. The protocol: Inhibition of HDAC6 activity was performed in accordance with the manufacturer’s protocol. Briefly, PRO-Br at various concentrations in HDAC Assay buffer II were prepared. The appropriate substrate solution provided in the kit was added, and the reaction plate was incubated at 37°C. The reaction was stopped by the addition of Developer II, and the fluorometric reading was measured at 440 nm using a fluorometer (Wallac EnVision).
HDAC6 is a cytoplasmic deacetylase that targets key proteins such as α-tubulin and HSP90. […] Therefore, inhibition of HDAC6 activity could be a promising therapeutic strategy for AD. […] To determine the binding of PRO/PRO-Br to HDAC6, we used molecular docking, and the binding affinity was determined from the binding free energies (Kcal/mol). From the docking study, the binding free energy of PRO-Br and PRO with HDAC6 was calculated to be −8.4 kcal/mol and −8.1 kcal/mol (Figures 5C–F), respectively.

The next assay concerns HT22 cells. The experiment in a line: LAMP2A / HSC70 immunocytochemistry and immunoblotting. It is filed as cell-based, mouse. Conditions: immunocytochemistry, 12.5 and 25 μM, 24 h. The protocol: SHSY5Y cells stably-expressing mutant tau (SHSYP301L) were cultured in DMEM/F12 + 15% FBS, 3 μg/ml Blasticidin S HCl, and 1X PSN. N2A mouse neuroblastoma and mouse hippocampal neuronal (HT22) cells were cultured in DMEM+10% FBS, and 1X PSN. Sterile complete medium containing PRO-Br was added to the cells, and they were then incubated for 24 h at an optimum temperature of 37°C in a sterile 5% CO2 incubator.
After PRO-Br treatment, cells were solubilised using cold RIPA lysis buffer (9803, Life Technologies), containing protease and phosphatase inhibitor tablets. Cells were sonicated and centrifuged at 14000 rpm for 15 min. Total protein concentration was determined by BCA protein assay, and the samples were separated on SDS-PAGE and transferred to PVDF membranes. The membranes were blocked, washed, and incubated with primary antibodies (Table 1), and incubated at 4°C, overnight. The membranes were further incubated with the required dilutions of secondary antibody for 1 h, at RT. The chemiluminescent signals were captured using x-ray film in a darkroom, with an appropriate chemiluminescent substrate kit (ThermoFisher Scientific, United States). Films were scanned, and the relative intensities of the signals were analyzed using ImageJ software.
HT22 cells were cultured in sterile 24-well culture dishes containing 14 mm cover-glass. Cells were treated with PRO-Br (12.5 and 25 μM), and DMSO (0.1%), for 24 h. Cells were fixed with paraformaldehyde (4%), permeabilized with triton-X-100 (0.1%), and blocked with BSA (2%). LAMP2A antibody (1:500), and HSC70 antibody (1:500) was added to the processed cells and incubated overnight at four°C. Alexa Fluor® 488 (green) and Alexa Fluor® 594 (red) secondary antibodies (1:400) were added and incubated for 1.5 h at room temperature. FluorSave reagent (Merck Millipore, United States) was added, then cover-slipped, and images were captured by a Leica confocal imaging system.
A general note: In western blotting, separated proteins are transferred to a membrane and probed.

`CN1CCc2cc3c(cc2C(=O)Cc2ccc4c(c2C1)OCO4)OCO3` [PRO, Protopine]: on HDAC6, the IC50 was determined as 2.36 µM. Further, the “expression of LAMP2A” value in the assay on HT22 cells is “did not enhance LAMP2A protein expression”.
